Data published in PubChem BioAssay AID1963846 (Molecular Pharmacology Branch, DTP, NCI, 2024).

Test system: 454973-116-R2-J3-PDC complex spheroid viability
Assay: Anticancer human tumor 454973-116-R2-J3-PDC patient-derived pancreatic carcinoma cell line growth inhibition [POLQ]
Conditions: for IC50: curve of first compound; for viability, T/C: stronger effect = lower value
Method in brief: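 Patient-derived tumour cells were co-cultured with HUVEC and mesenchymal stem cells as multicellular spheroids at 37 °C. They were treated with POLQ inhibitors (novobiocin, ART-558, RP6685) alone or combined with other agents. Top concentrations were at or near clinical Cmax (otherwise 10 microM; SN-38 at 1 microM), decreasing in half-log steps.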

[1] = second compound 0.0316 µM, first compound 0.0316 µM
[2] = second compound 0.0316 µM, first compound 0.1 µM
[3] = second compound 0.0316 µM, first compound 0.316 µM
[4] = second compound 0.0316 µM, first compound 1 µM
[5] = second compound 0.0316 µM, first compound 3.16 µM
[6] = second compound 0.0316 µM, first compound 10 µM
[7] = second compound 0.1 µM, first compound 0.0316 µM
[8] = second compound 0.1 µM, first compound 0.1 µM
[9] = second compound 0.1 µM, first compound 0.316 µM
[10] = second compound 0.1 µM, first compound 1 µM
[11] = second compound 0.1 µM, first compound 3.16 µM
[12] = second compound 0.1 µM, first compound 10 µM
[13] = second compound 0.316 µM, first compound 0.0316 µM
[14] = second compound 0.316 µM, first compound 0.1 µM
[15] = second compound 0.316 µM, first compound 0.316 µM
[16] = second compound 0.316 µM, first compound 1 µM
[17] = second compound 0.316 µM, first compound 3.16 µM
[18] = second compound 0.316 µM, first compound 10 µM
[19] = second compound 1 µM, first compound 0.0316 µM
[20] = second compound 1 µM, first compound 0.1 µM
[21] = second compound 1 µM, first compound 0.316 µM
[22] = second compound 1 µM, first compound 1 µM
[23] = second compound 1 µM, first compound 3.16 µM
[24] = second compound 1 µM, first compound 10 µM
[25] = second compound 3.16 µM, first compound 0.0316 µM
[26] = second compound 3.16 µM, first compound 0.1 µM
[27] = second compound 3.16 µM, first compound 0.316 µM
[28] = second compound 3.16 µM, first compound 1 µM
[29] = second compound 3.16 µM, first compound 3.16 µM
[30] = second compound 3.16 µM, first compound 10 µM
[31] = second compound 10 µM, first compound 0.0316 µM
[32] = second compound 10 µM, first compound 0.1 µM
[33] = second compound 10 µM, first compound 0.316 µM
[34] = second compound 10 µM, first compound 1 µM
[35] = second compound 10 µM, first compound 3.16 µM
[36] = second compound 10 µM, first compound 10 µM
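Note: spheroids exposed to drugs for seven days before measurement.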
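Throughout, for viability, T/C: percent viability relative to DMSO vehicle control wells taken as 100%.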

COc1cccc2c1C(=O)c1c(O)c3c(c(O)c1C2=O)CC(O)(C(=O)CO)CC3OC1CC(N)C(O)C(C)O1 (stereo unspecified) + Nc1ccc(C#CCN(C(=O)Cc2ncc(C(F)(F)F)cc2C(F)(F)F)c2ccc(F)cc2)nn1
IC50 (second compound 0.0316 µM): 37.4 nM
IC50 (second compound 0.1 µM): 36 nM
IC50 (second compound 0.316 µM): < 31.6 nM
IC50 (second compound 1 µM): < 31.6 nM
IC50 (second compound 3.16 µM): 32.2 nM
IC50 (second compound 10 µM): < 31.6 nM
viability, T/C [1]: 55.6%
viability, T/C [2]: 19.3%
viability, T/C [3]: 15.8%
viability, T/C [4]: 5.05%
viability, T/C [5]: 0.67%
viability, T/C [6]: 0.12%
viability, T/C [7]: 54.4%
viability, T/C [8]: 20.7%
viability, T/C [9]: 14.5%
viability, T/C [10]: 6.06%
viability, T/C [11]: 1.06%
viability, T/C [12]: 0.39%
viability, T/C [13]: 50.5%
viability, T/C [14]: 20.4%
viability, T/C [15]: 11.7%
viability, T/C [16]: 4.87%
viability, T/C [17]: 0.69%
viability, T/C [18]: 0.21%
viability, T/C [19]: 49.6%
viability, T/C [20]: 19.9%
viability, T/C [21]: 16.4%
viability, T/C [22]: 4.25%
viability, T/C [23]: 0.36%
viability, T/C [24]: 0.66%
viability, T/C [25]: 51.6%
viability, T/C [26]: 17.8%
viability, T/C [27]: 14.6%
viability, T/C [28]: 3.6%
viability, T/C [29]: 0.55%
viability, T/C [30]: 0.26%
viability, T/C [31]: 48.2%
viability, T/C [32]: 12.7%
viability, T/C [33]: 10.2%
viability, T/C [34]: 3.36%
viability, T/C [35]: 0.54%
viability, T/C [36]: 0.27%

CC1COCCN1c1cc(-c2ccnn2C)c2ccnc(-c3ccn[nH]3)c2n1 (stereo unspecified) + COC1C(OC(N)=O)C(O)C(Oc2ccc3c(O)c(NC(=O)c4ccc(O)c(CC=C(C)C)c4)c(=O)oc3c2C)OC1(C)C
IC50 (second compound 0.0316 µM): 205 nM
IC50 (second compound 0.1 µM): 217 nM
IC50 (second compound 0.316 µM): 209 nM
IC50 (second compound 1 µM): 220 nM
IC50 (second compound 3.16 µM): 223 nM
IC50 (second compound 10 µM): 198 nM
viability, T/C [1]: 97%
viability, T/C [2]: 71.8%
viability, T/C [3]: 38.5%
viability, T/C [4]: 19.2%
viability, T/C [5]: 22.8%
viability, T/C [6]: 25.9%
viability, T/C [7]: 97.3%
viability, T/C [8]: 75.7%
viability, T/C [9]: 38%
viability, T/C [10]: 21.9%
viability, T/C [11]: 20.1%
viability, T/C [12]: 23.9%
viability, T/C [13]: 97.8%
viability, T/C [14]: 77.2%
viability, T/C [15]: 35.4%
viability, T/C [16]: 21.2%
viability, T/C [17]: 23.2%
viability, T/C [18]: 29.6%
viability, T/C [19]: 103%
viability, T/C [20]: 79%
viability, T/C [21]: 37.8%
viability, T/C [22]: 18.8%
viability, T/C [23]: 23.2%
viability, T/C [24]: 26.6%
viability, T/C [25]: 100%
viability, T/C [26]: 77.9%
viability, T/C [27]: 39%
viability, T/C [28]: 20.4%
viability, T/C [29]: 26.1%
viability, T/C [30]: 27.9%
viability, T/C [31]: 105%
viability, T/C [32]: 70.8%
viability, T/C [33]: 38%
viability, T/C [34]: 16.7%
viability, T/C [35]: 25.9%
viability, T/C [36]: 33.7%

Nc1ccn(C2OC(CO)C(O)C2(F)F)c(=O)n1 (stereo unspecified) + Nc1ccc(C#CCN(C(=O)Cc2ncc(C(F)(F)F)cc2C(F)(F)F)c2ccc(F)cc2)nn1
IC50 (second compound 0.0316 µM): < 31.6 nM
IC50 (second compound 0.1 µM): < 31.6 nM
IC50 (second compound 0.316 µM): < 31.6 nM
IC50 (second compound 1 µM): < 31.6 nM
IC50 (second compound 3.16 µM): < 31.6 nM
IC50 (second compound 10 µM): < 31.6 nM
viability, T/C [1]: 6.99%
viability, T/C [2]: 8.25%
viability, T/C [3]: 7.01%
viability, T/C [4]: 6.38%
viability, T/C [5]: 8.02%
viability, T/C [6]: 5.63%
viability, T/C [7]: 8.85%
viability, T/C [8]: 7.54%
viability, T/C [9]: 7.93%
viability, T/C [10]: 6.21%
viability, T/C [11]: 7.06%
viability, T/C [12]: 5.26%
viability, T/C [13]: 7.49%
viability, T/C [14]: 6.66%
viability, T/C [15]: 6.67%
viability, T/C [16]: 7.27%
viability, T/C [17]: 6.52%
viability, T/C [18]: 5.87%
viability, T/C [19]: 9.44%
viability, T/C [20]: 6.21%
viability, T/C [21]: 6.52%
viability, T/C [22]: 6.07%
viability, T/C [23]: 6.68%
viability, T/C [24]: 5.65%
viability, T/C [25]: 9.42%
viability, T/C [26]: 6.2%
viability, T/C [27]: 6.31%
viability, T/C [28]: 6.8%
viability, T/C [29]: 7.81%
viability, T/C [30]: 5.38%
viability, T/C [31]: 7.43%
viability, T/C [32]: 5.82%
viability, T/C [33]: 5.66%
viability, T/C [34]: 6.28%
viability, T/C [35]: 7.1%
viability, T/C [36]: 4.05%
